According to patent US20260345791A1, “EIF4A INHIBITORS AND USES THEREOF” (The Regents of the University of California, priority 2022, published 2026):

Tests used:
[1] = tested on: K562 CRISPRi or CRISPRa cells; IFITM1, IFITM2, IFITM3; test: Viability of K562 CRISPRi/CRISPRa cells with modulated IFITM expression (chemical-genetic interaction, IC50 shift); format: cell-based; conditions: for IFITM assistance versus linker length: linker series: BisRoc-1 (PEG11), BisRoc-2 (PEG4), BisRoc-3 (PEG2), rocaglamide (no linker), FIG. 2B
Excerpt: FIGS. 1A-1E. Longer linker length correlates with greater IFITM assistance in a series of linked rocaglamide analogs. FIG. 1A: Crystal structure of rocaglamide bound to eIF4A1 and polypurine RNA showing adjacent symmetry mates (PDB, 5ZC9). The distance between RocA molecules bound to adjacent eIF4A1 proteins is approximately 14 Å and the solvent exposed amide on RocA offers a handle for chemical modification. FIG. 1B: Chemical structures of select eIF4A1 inhibitors. FIGS. 1C-1D: Viability of K562 CRISPRi (FIG. 1C) or CRISPRa (FIG. 1D) cells expressing sgRNAs treated with BisRoc-1 or rocaglamide. Data represent means of three biological replicates; error bars denote SD. FIG. 1E: Chemical structures of a BisRoc linker length series (see also FIG. 2B).
FIGS. 2A-2C. IFITM proteins assist the cellular activity of diverse linked chemotypes. FIG. 2A: Heavy atom skeletons of compounds assessed for IFITM assistance (see also FIG. 3 for chemical structures). Compounds were categorized as non-linked chemotypes (compounds 3, 6, and 8; black), linked chemotypes with short linkers (compounds 10 and 13; light gray), or linked chemotypes with long linkers (compounds 15 and 17; medium gray). FIG. 2B: Chemical-genetic interaction map of inhibitors in FIG. 2A with IFITM1, IFTM2, and IFITM3. Potency, as measured by dose-response IC50 in a cell viability assay (see also FIG. 1D for example source data), was normalized to that of non-sgRNA-expressing K562 CRISPRi or CRISPRa cells. Physicochemical properties, including molecular weight (MW) and number of rotatable bonds, with their respective traditional thresholds for drug-likeness are indicated (right). Data represent means of three biological replicates. FIG. 2C: Map of chemical space populated by 301 kinase inhibitors in clinical development (black), 2258 PROTACs reported in the literature (light gray), and 2 linked chemotypes described herein (medium gray). Boundaries represent traditional guidelines for drug-likeness.
Given the ubiquitous presence of IFITM proteins in cells, we hypothesized that the cellular uptake of other linked inhibitors in the literature could also be assisted by IFITM proteins. While not generally as large as the linked chemotypes described above, PROTACs are likewise composed of two chemical entities covalently attached by a flexible tether (15). […] Thus, we included several PROTACs and their non-linked parent inhibitors in an expanded survey of chemical-genetic interactions with IFITM proteins (FIG. 2A, FIGS. 3A-3B, and FIG. 4). We treated our K562 CRISPRi and CRISPRa cells with these inhibitors and evaluated differences in potency resulting from IFITM protein expression modulation, as measured by half-maximal inhibitory concentration (IC50) shift in a cell viability assay. […] The inverse finding, resistance to linked chemotypes, resulted from gene knockdown (FIG. 2B). Included among these compounds were a systematic linker series of BisRoc-1 analogs (FIG. 1E). […] The same trend was corroborated by the diverse ensemble of all molecules tested (FIG. 2B): the magnitudes of chemical-genetic interactions correlated with inhibitor size (molecular weight) and flexibility (number of rotatable bonds). […] Despite their cellular activities, the physicochemical properties of these linked chemotypes largely violate Lipinski's (1) and Veber's (2) classic guidelines (FIG. 2B and FIG. 4), raising the need for a revised drug design framework that considers IFITM-assisted uptake and other cellular import processes. […]

[2] = tested on: interferon-induced transmembrane (IFITM) proteins; test: Genome-scale chemical-genetic identification of uptake pathway; format: cell-based; conditions: genome-scale chemical-genetic approaches
Excerpt: We devised additional linked inhibitors targeting EIF4A1 (BisRoc-1, molecular weight: 1466 g/mol) whose uptake we predicted would be assisted by IFITM proteins. This uptake pathway should provide a general mechanism by which large, flexibly linked chimeric molecules can gain assisted access to the cytosol, including compounds with mechanisms of action not easily accessible to traditional drug-like molecules.

MTOR = conditions: cited from earlier work
[3] = in vivo; cited from earlier work
KBM7 cells; IFITM2 = conditions: IFITM2 knockout, not validated; cited from earlier work

## COc1ccc([C@@]23Oc4cc(OC)cc(OC)c4[C@]2(O)[C@H](O)[C@H](C(=O)NCCOCCOCCOCCOCCOCCOCCOCCOCCOCCOCCOCCNC(=O)[C@H]2[C@@H](O)[C@@]4(O)c5c(OC)cc(OC)cc5O[C@@]4(c4ccc(OC)cc4)[C@@H]2c2ccccc2)[C@H]3c2ccccc2)cc1 [BisRoc-1]
[1]; K562 CRISPRi/a cells, FIG. 1C-1D
  overall modulation in the cellular activity accounted for by IFITM proteins: 6.2 fold
[1]
  IFITM assistance versus linker length: longer linker lengths correlated with greater IFITM assistance

## COc1ccc([C@@]23Oc4cc(OC)cc(OC)c4[C@]2(O)[C@H](O)[C@H](C(=O)NCCOCCOCCOCCOCCNC(=O)[C@H]2[C@@H](O)[C@@]4(O)c5c(OC)cc(OC)cc5O[C@@]4(c4ccc(OC)cc4)[C@@H]2c2ccccc2)[C@H]3c2ccccc2)cc1 [BisRoc-2]
[1]
  IFITM assistance versus linker length: longer linker lengths correlated with greater IFITM assistance

## COc1ccc([C@@]23Oc4cc(OC)cc(OC)c4[C@]2(O)[C@H](O)[C@H](C(=O)NCCOCCOCCNC(=O)[C@H]2[C@@H](O)[C@@]4(O)c5c(OC)cc(OC)cc5O[C@@]4(c4ccc(OC)cc4)[C@@H]2c2ccccc2)[C@H]3c2ccccc2)cc1 [BisRoc-3]
[1]
  IFITM assistance versus linker length: longer linker lengths correlated with greater IFITM assistance

## CO[C@H]1C[C@@H]2CC[C@@H](C)[C@@](O)(O2)C(=O)C(=O)N2CCCC[C@H]2C(=O)O[C@H]([C@H](C)C[C@@H]2CC[C@@H](OCCOCc3cn(CCOCCOCCOCCOCCOCCOCCOCCOCCC(=O)NCCCCn4nc(-c5ccc6oc(N)nc6c5)c5c(N)ncnc54)nn3)[C@H](OC)C2)CC(=O)[C@H](C)/C=C(\C)[C@@H](O)[C@@H](OC)C(=O)[C@H](C)C[C@H](C)C=CC=CC=C1C [RapaLink-1]
[2]
  modulation of cell permeability by IFITM pathway: modulates the cell permeability
MTOR
  activity in vivo: highly active in vivo
[3]
  blood-brain barrier penetration: penetrates the blood-brain barrier

## Cc1sc2c(c1C)C(c1ccc(Cl)cc1)=N[C@@H](CC(=O)NCCCCCCCCNC(=O)COc1cccc3c1C(=O)N(C1CCC(=O)NC1=O)C3=O)c1nnc(C)n1-2 (stereo partly drawn) [dBET6]
KBM7 cells; IFITM2
  IFITM2 chemical-genetic interaction: statistically significant resistance chemical-genetic interaction

## COc1ccc([C@@]23Oc4cc(OC)cc(OC)c4[C@]2(O)[C@H](O)[C@H](C(=O)N(C)C)[C@H]3c2ccccc2)cc1 [rocaglamide]
[1]
  IFITM assistance versus linker length: longer linker lengths correlated with greater IFITM assistance
